Data reported in patent US12459974B2, “Bicyclic peptide ligands specific for Nectin-4” (priority 2018, dated 2025).
Where “and” joins values, the source holds several entries; their conditions need not be identical. Equal values may be shown once. Read-outs that look alike come from different tables or passages of the source. *1 amine or outer side, *2 acyl side, *3 side chain or, on linkers, in order; H or OH if unused. Where a SMILES comes first, the peptide text is derived from it. Bridges are numbered along the chain shown (N, C = ends). Roman numbers before positions name the chains, in order. [ ]: non-standard residue; d: D form. The star is where a group is joined. ξ: configuration not given here. TATA = O=C(CC[*:1])N1CN(C(=O)CC[*:2])CN(C(=O)CC[*:3])C1; Dolaproine = CO[C@@H]([C@@H]1CCCN1)[C@@H](C)C(=O)O; X1 = CC[C@H](C)C(C(CC(=O)[*:2])OC)N(C)[*:1]; 1Nal = N[C@@H](Cc1cccc2ccccc12)C(=O)O; X3 = O=C(CCCC(=O)[*:2])NCCC(=O)[*:1]; PABC = O=C(OCc1ccc(N[*:1])cc1)[*:2]; Hyp = O=C(O)[C@@H]1C[C@@H](O)CN1; hArg = N=C(N)NCCCC[C@H](N)C(=O)O; Cit = NC(=O)NCCC[C@H](N)C(=O)O; X2 = CC(N*)[C@@H](O)c1ccccc1; ξNMeV = CNC(C(=O)O)C(C)C; ξV = CC(C)C(N)C(=O)O; Sar = CNCC(=O)O

Experiments:
[1] = system: MDA-MB-468 cell line; test: Example 11: HCS assay, Nectin-4 BDC binding study; format: cell-based
Method: HCS assay was used in Nectin-4 BDC binding study. Cells were incubated with test agent and then washed. Detection was by a fluorescent antibody to MMAE.

[2] = system: Panc2.13 xenograft; test: Example 3: in vivo efficacy in Panc2.13 xenograft (pancreatic cancer model) in Balb/c nude mice; parameters: species or system Mus Musculus
[3] = system: NCI-H292 xenograft; test: Example 1: in vivo efficacy in NCI-H292 xenograft (NSCLC model) in BALB/c nude mice; parameters: species or system Mus Musculus
Method: The major endpoint was to see if the tumor growth could be delayed or mice could be cured. Tumor volume was measured three times weekly in two dimensions using a caliper, and the volume was expressed in mm^3 using the formula: V=0.5 a×b^2 where a and b are the long and short diameters of the tumor, respectively. The tumor size was then used for calculations of T/C value. The T/C value (in percent) is an indication of antitumor effectiveness; T and C are the mean volumes of the treated and control groups, respectively, on a given day. TGI was calculated for each group using the formula: TGI (%)=[1−(Ti−T0)/(Vi−V0)]×100; Ti is the average tumor volume of a treatment group on a given day, T0 is the average tumor volume of the treatment group on the day of treatment start, Vi is the average tumor volume of the vehicle control group on the same day with Ti, and V0 is the average tumor volume of the vehicle group on the day of treatment start.
A one-way ANOVA was performed to compare tumor volume among groups, and when a significant F-statistics (a ratio of treatment variance to the error variance) was obtained, comparisons between groups were carried out with Games-Howell test. All data were analyzed using GraphPad Prism 5.0. P<0.05 was considered to be statistically significant.
The NCI-H292 tumor cells will be maintained in medium supplemented with 10% heat inactivated fetal bovine serum at 37° C. in an atmosphere of 5% CO2 in air. The tumor cells will be routinely subcultured twice weekly. The cells growing in an exponential growth phase will be harvested and counted for tumor inoculation.
Each mouse will be inoculated subcutaneously at the right flank with NCI-H292 tumor cells (10×10^6) in 0.2 ml of PBS for tumor development. The animals will be randomized and treatment will be started when the average tumor volume reaches approximately 158-406 mm^3.

[4] = system: MDA-MB-468 xenograft; test: Example 9.8: in vivo efficacy of BCY8245, BCY8781 and BCY8245 with BCY8234 in MDA-MB-468 xenograft in Balb/c nude mice; parameters: species or system Mus Musculus; settings: for tumor relapse (in words): following monitoring schedule
[5] = 3 mpk biw iv, day 14 (Table 13)
[6] = 1 mg/kg qw and 3 mg/kg qw in combination with BCY8234 300 mg/kg qw, day 21

SMILES: CC[C@H](C)C(C(CC(=O)N1CCC[C@H]1[C@H](OC)[C@@H](C)C(=O)NC(C)[C@@H](O)c1ccccc1)OC)N(C)C(=O)[C@@H](NC(=O)C(C(C)C)N(C)C(=O)OCc1ccc(NC(=O)[C@H](CCCNC(N)=O)NC(=O)C(NC(=O)CCCC(=O)NCCC(=O)N(C)CC(=O)N(C)CC(=O)N(C)CC(=O)N(C)CC(=O)N(C)CC(=O)N(C)CC(=O)N(C)CC(=O)N(C)CC(=O)N(C)CC(=O)N(C)CC(=O)N[C@H]2CSCCC(=O)N3CN4CN(C3)C(=O)CCSC[C@H](NC(=O)[C@@H](CC(=O)O)NC(=O)[C@H](Cc3cccc5ccccc35)NC(=O)[C@@H]3CCCN3C2=O)C(=O)N[C@@H](CCSC)C(=O)N[C@@H](CCCCNC(=N)N)C(=O)N[C@@H](CC(=O)O)C(=O)N[C@@H](Cc2c[nH]c3ccccc23)C(=O)N[C@@H](CO)C(=O)N[C@@H]([C@@H](C)O)C(=O)N2CCC[C@H]2C(=O)N2C[C@H](O)C[C@H]2C(=O)N[C@@H](Cc2c[nH]c3ccccc23)C(=O)N[C@H](C(N)=O)CSCCC4=O)C(C)C)cc1)C(C)C (stereo partly drawn) [BCY8245, MMAE-PABC-Cit-Val-Glutaryl-BCY8234] (I: [Sar][Sar][Sar][Sar][Sar][Sar][Sar][Sar][Sar][Sar]CP[1Nal][dD]CM[hArg]DWSTP[Hyp]WC-NH2 / II: [ξV][Cit][PABC][ξNMeV]V[X1][Dolaproine]-X2; linker I:11-I:15-I:25 via TATA; linker I:N-II:N via X3)
- Bmax (in words) [1]: lower than for the Nectin-4 ADC
- binding affinity on MDA-MB-468 cell line (in words) [1]: single digit nanomolar affinity
- Max fluorescent intensity ([1]; MDA-MB-468 cell line, fluorescent antibody to MMAE): 13.34
- Kd ([1]; MDA-MB-468 cell line, historical data, read-out: Historical Kd): 5.18 nM
- Kd ([1]; MDA-MB-468 cell line, read-out: Kd): 3.52 nM
- retention on the cells (in words) ([1]; detection by a fluorescent antibody to MMAE): retained on the cells
- TGI ([2]; 3 mg/kg biw, day 14): 79.1%
- Tumor volume (TV) ([2]; 3 mg/kg biw, day 14): 231 mm^3
- TGI ([2]; 3 mg/kg qw, day 14): 69.2%
- Tumor volume (TV) ([2]; 3 mg/kg qw, day 14): 271 mm^3
- TGI ([2]; 5 mg/kg qw, day 14): 77.5%
- Tumor volume (TV) ([2]; 5 mg/kg qw, day 14): 238 mm^3
- Tumor volume ([2]; 3 mpk, biw, iv, day 0 after start of treatment): 148 ± 46 mm^3
- Tumor volume ([2]; 3 mpk, biw, iv, day 2): 170 ± 38 mm^3
- Tumor volume ([2]; 3 mpk, biw, iv, day 4): 204 ± 57 mm^3
- Tumor volume ([2]; 3 mpk, biw, iv, day 7): 216 ± 56 mm^3
- Tumor volume ([2]; 3 mpk, biw, iv, day 9): 236 ± 59 mm^3
- Tumor volume ([2]; 3 mpk, biw, iv, day 11): 241 ± 60 mm^3
- Tumor volume ([2]; 3 mpk, biw, iv, day 14): 231 ± 57 mm^3
- T/C ([2]; 3 mpk, biw, day 14): 42.3%
- TGI ([2]; 3 mpk, biw, day 14): 79.1%
- Tumor volume ([2]; 3 mpk, biw, day 14, Mean ± SEM (Table 19)): 231 ± 57 mm^3
- Tumor volume ([2]; 3 mpk, qw, iv, day 0 after start of treatment): 149 ± 34 mm^3
- Tumor volume ([2]; 3 mpk, qw, iv, day 2): 160 ± 33 mm^3
- Tumor volume ([2]; 3 mpk, qw, iv, day 4): 191 ± 39 mm^3
- Tumor volume ([2]; 3 mpk, qw, iv, day 7): 215 ± 53 mm^3
- Tumor volume ([2]; 3 mpk, qw, iv, day 9): 242 ± 62 mm^3
- Tumor volume ([2]; 3 mpk, qw, iv, day 11): 259 ± 59 mm^3
- Tumor volume ([2]; 3 mpk, qw, iv, day 14): 271 ± 54 mm^3
- T/C ([2]; 3 mpk, qw, day 14): 49.6%
- TGI ([2]; 3 mpk, qw, day 14): 69.2%
- Tumor volume ([2]; 3 mpk, qw, day 14, Mean ± SEM (Table 19)): 271 ± 54 mm^3
- Tumor volume ([2]; 5 mpk, qw, iv, day 0 after start of treatment): 149 ± 18 mm^3
- Tumor volume ([2]; 5 mpk, qw, iv, day 2): 180 ± 11 mm^3
- Tumor volume ([2]; 5 mpk, qw, iv, day 4): 231 ± 33 mm^3
- Tumor volume ([2]; 5 mpk, qw, iv, day 7): 242 ± 34 mm^3
- Tumor volume ([2]; 5 mpk, qw, iv, day 9): 248 ± 40 mm^3
- Tumor volume ([2]; 5 mpk, qw, iv, day 11): 231 ± 37 mm^3
- Tumor volume ([2]; 5 mpk, qw, iv, day 14): 238 ± 40 mm^3
- T/C ([2]; 5 mpk, qw, day 14): 43.6%
- TGI ([2]; 5 mpk, qw, day 14): 77.5%
- Tumor volume ([2]; 5 mpk, qw, day 14, Mean ± SEM (Table 19)): 238 ± 40 mm^3
- anti-tumour activity (in words) ([2]; mouse, in vivo): good anti-tumour activity
- antitumor activity (in words) ([3]; 1 mg/kg qw): didn't produce significant antitumor activity
- Tumor volume ([3]; 1/3/5 mpk qw iv, day 0): 404 ± 65 mm^3
- Tumor volume ([3]; 1/3/5 mpk qw iv, day 2): 391 ± 42 mm^3
- Tumor volume ([3]; 1/3/5 mpk qw iv, day 4): 542 ± 14 mm^3
- Tumor volume ([3]; 1/3/5 mpk qw iv, day 7): 721 ± 136 mm^3
- Tumor volume ([3]; 1/3/5 mpk qw iv, day 9): 762 ± 115 mm^3
- Tumor volume ([3]; 1/3/5 mpk qw iv, day 11): 607 ± 95 mm^3
- Tumor volume ([3]; 1/3/5 mpk qw iv, day 14): 614 ± 89 mm^3
- Tumor volume ([3]; 1/3/5 mpk qw iv, day 16): 626 ± 93 mm^3
- Tumor volume ([3]; 1/3/5 mpk qw iv, day 18): 611 ± 93 mm^3
- T/C ([3]; 1/3/5 mpk qw iv, day 21): 30.4%
- TGI ([3]; 1/3/5 mpk qw iv, day 21): 85.7%
- Tumor volume ([3]; 1/3/5 mpk qw iv, day 21): 654 ± 152 mm^3
- Tumor volume ([3]; 1/3/5 mpk qw iv, day 23): 732 ± 139 mm^3
- Tumor volume ([3]; 1/3/5 mpk qw iv, day 25): 755 ± 132 mm^3
- Tumor volume ([3]; 1/3/5 mpk qw iv, day 28): 713 ± 114 mm^3
- Tumor volume ([3]; 1/3/5 mpk qw iv, day 30): 762 ± 165 mm^3
- Tumor volume ([3]; 1/3/5 mpk qw iv, day 32): 968 ± 290 mm^3
- Tumor volume ([3]; 1/3/5 mpk qw iv, day 35): 1119 ± 216 mm^3
- Tumor volume ([3]; 3 mpk biw iv, day 0 (Table 9)): 162 ± 13 mm^3
- Tumor volume ([3]; 3 mpk biw iv, day 2 (Table 9)): 243 ± 19 mm^3
- Tumor volume ([3]; 3 mpk biw iv, day 4 (Table 9)): 211 ± 12 mm^3
- Tumor volume ([3]; 3 mpk biw iv, day 7 (Table 9)): 101 ± 11 mm^3
- Tumor volume ([3]; 3 mpk biw iv, day 9 (Table 9)): 100 ± 8 mm^3
- Tumor volume ([3]; 3 mpk biw iv, day 11 (Table 9)): 87 ± 7 mm^3
- Tumor volume ([3]; 3 mpk biw iv, day 14 (Table 9)): 65 mm^3 and 65 ± 3 mm^3
- T/C [3, 5]: 6.9%
- TGI [3, 5]: 112.2%
- Tumor volume ([3]; 3 mpk qw iv, day 0 (Table 9)): 160 ± 5 mm^3
- Tumor volume ([3]; 3 mpk qw iv, day 2 (Table 9)): 220 ± 11 mm^3
- Tumor volume ([3]; 3 mpk qw iv, day 4 (Table 9)): 266 ± 15 mm^3
- Tumor volume ([3]; 3 mpk qw iv, day 7 (Table 9)): 218 ± 23 mm^3
- Tumor volume ([3]; 3 mpk qw iv, day 9 (Table 9)): 167 ± 10 mm^3
- Tumor volume ([3]; 3 mpk qw iv, day 11 (Table 9)): 161 ± 36 mm^3
- Tumor volume ([3]; 3 mpk qw iv, day 14 (Table 9)): 149 mm^3 and 149 ± 43 mm^3
- T/C ([3]; 3 mpk qw iv, day 14 (Table 13)): 15.8%
- TGI ([3]; 3 mpk qw iv, day 14 (Table 13)): 101.4%
- Tumor volume ([3]; 5 mpk qw iv, day 0 (Table 9)): 160 ± 9 mm^3
- Tumor volume ([3]; 5 mpk qw iv, day 2 (Table 9)): 176 ± 7 mm^3
- Tumor volume ([3]; 5 mpk qw iv, day 4 (Table 9)): 191 ± 3 mm^3
- Tumor volume ([3]; 5 mpk qw iv, day 7 (Table 9)): 105 ± 8 mm^3
- Tumor volume ([3]; 5 mpk qw iv, day 9 (Table 9)): 82 ± 3 mm^3
- Tumor volume ([3]; 5 mpk qw iv, day 11 (Table 9)): 91 ± 14 mm^3
- Tumor volume ([3]; 5 mpk qw iv, day 14 (Table 9)): 83 mm^3 and 83 ± 8 mm^3
- T/C ([3]; 5 mpk qw iv, day 14 (Table 13)): 8.8%
- TGI ([3]; 5 mpk qw iv, day 14 (Table 13)): 109.8%
- antitumor activity (in words) ([3]; after increasing the dosage to 3 mg/kg from day 7): obvious antitumor activity
- efficacy (in words) ([3]; after increasing the dosage to 5 mg/kg on day 21): not further improved
- anti-tumour activity (in words) ([3]; mouse, in vivo): good anti-tumour activity
- anti-tumor activity (in words) ([4]; 0.3 mg/kg qw or biw): did not show any anti-tumor activity
- TGI [4, 6]: 75.4%
- Tumor volume (TV) [4, 6]: 242 mm^3
- TGI ([4]; 1 mg/kg qw, day 21): 92.1%
- Tumor volume (TV) ([4]; 1 mg/kg qw, day 21): 204 mm^3
- tumor relapse (in words) ([4]; 1 mg/kg qw): obvious tumor relapse
- TGI ([4]; 3 mg/kg qw, day 21): 164.9%
- Tumor volume (TV) ([4]; 3 mg/kg qw, day 21): 27 mm^3
- tumor relapse (in words) ([4]; 3 mg/kg qw): didn't show any tumor relapse
- anti-tumor activity at 3 mg/kg in presence of BCY8234 at 300 mg/kg versus alone (in words) ([4]; 3 mg/kg with BCY8234 300 mg/kg): antagonized by BCY8234
- T/C ([4]; 0.3 mpk, qw): 71.4%
- TGI ([4]; 0.3 mpk, qw): 52.7%
- T/C ([4]; 1 mpk, qw): 48.6%
- TGI ([4]; 1 mpk, qw): 92.1%
- T/C ([4]; 3 mpk, qw): 6.5%
- TGI ([4]; 3 mpk, qw): 164.9%
- tumor response (in words) ([4]; former vehicle group, single dose of 5 mg/kg on day 32): obvious tumor regression
